Experiments:
[1] = Selectivity index, ratio of IC50 for ovine COX1 to IC50 for COX2 (unknown origin)
[2] = molecular target: Prostaglandin G/H synthase 1 (Ovis aries) (UniProt P05979); assay: Inhibition of ovine COX1 assessed as reduction in prostaglandin E2 production at 30 uM incubated for 10 mins before arachidonic acid addition and measured after 25 mins by LC-MS/MS analysis
[3] = test system: Prostaglandin G/H synthase 2; assay: Inhibition of COX2 (unknown origin) assessed as reduction in prostaglandin E2 production at 30 uM incubated for 10 mins before arachidonic acid addition and measured after 25 mins by LC-MS/MS analysis; conditions: Homo sapiens

SMILES: COC(=O)[C@@H](C)c1ccc2c(C)cc(O)c(C)c2c1
- Ratio IC50 [1]: 0.496
- inhibition [2]: 52.9%
- inhibition [3]: 21.8%

Reference: ChEMBL document CHEMBL4392873, “Transformation of Santonin to a Naproxen Analogue with Anti-Inflammatory Activity” (J Nat Prod, 2019)
